Reference: article PMC7015663 (Journal of the American Chemical Society, 2019)

Target: T1, RNase A (Bos taurus, UniProt P61823)
T1 sequence (P61823 27-150): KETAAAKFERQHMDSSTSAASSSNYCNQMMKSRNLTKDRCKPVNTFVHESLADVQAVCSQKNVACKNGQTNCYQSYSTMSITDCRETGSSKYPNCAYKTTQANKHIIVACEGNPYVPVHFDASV
Assay: not given
Conditions: ref [7]; cited from earlier work
In the case of Cc1cn([C@H]2C[C@H](OP(=O)(O)OP(=O)(O)OC[C@H]3O[C@@H](n4cnc5c(N)ncnc54)C[C@@H]3O)[C@@H](CO)O2)c(=O)[nH]c1=O [TppdA], the Ki is given as 4 µM. For Nc1ncnc2c1ncn2[C@@H]1O[C@H](COP(=O)(O)OP(=O)(O)O[C@H]2C[C@H](n3ccc(=O)[nH]c3=O)O[C@@H]2CO)[C@@H](OP(=O)(O)O)[C@H]1O [dUppAp], the Ki is given as 0.12 µM. For Cc1cn(C2CC(OP(=O)(O)OP(=O)(O)OCC3OC(n4cnc5c(N)ncnc54)C(O)C3OP(=O)(O)O)C(COP(=O)(O)O)O2)c(=O)[nH]c1=O (stereo not drawn) [pdTppAp], the Ki is listed as 0.041 µM. In the case of Nc1ncnc2c1ncn2C1OC(COP(=O)(O)OP(=O)(O)OC2CC(n3ccc(=O)[nH]c3=O)OC2COP(=O)(O)O)C(OP(=O)(O)O)C1O (stereo not drawn) [pdUppAp], the Ki is listed as 0.027 µM. For Nc1ncnc2c1ncn2[C@@H]1O[C@H](COP(=O)(O)OP(=O)(O)O)[C@@H](OP(=O)(O)O)[C@H]1O [ppAp], the Ki is listed as 0.24 µM.

Same assay, conditions: ref [10]; cited from earlier work
For Nc1ncnc2c1ncn2[C@@H]1O[C@H](COP(=O)(O)OP(=O)(O)OP(=O)(O)OC[C@H]2O[C@@H](n3cnc4c(N)ncnc43)[C@H](O)[C@@H]2O)[C@@H](O)[C@H]1O [Ap3A], the Ki is listed as 29 µM. For Nc1ncnc2c1ncn2[C@@H]1O[C@H](COP(=O)(O)OP(=O)(O)OP(=O)(O)OP(=O)(O)OC[C@H]2O[C@@H](n3cnc4c(N)ncnc43)[C@H](O)[C@@H]2O)[C@@H](O)[C@H]1O [Ap4A], the Ki is listed as 2.6 µM. In the case of Nc1ncnc2c1ncn2[C@@H]1O[C@H](COP(=O)(O)OP(=O)(O)OP(=O)(O)OP(=O)(O)OP(=O)(O)OC[C@H]2O[C@@H](n3cnc4c(N)ncnc43)[C@H](O)[C@@H]2O)[C@@H](O)[C@H]1O [Ap5A], the Ki is given as 0.23 µM. In the case of Nc1ncnc2c1ncn2[C@@H]1O[C@H](COP(=O)(O)OP(=O)(O)OP(=O)(O)O)[C@@H](O)[C@H]1O [p3A], the Ki is given as 0.86 µM.

Same assay, conditions: ref [40]; cited from earlier work
For O=P(O)(O)OP(=O)(O)O [P2i, pyrophosphate], the Ki is listed as 170 µM. For O=P(O)(O)O [Pi, orthophosphate], the Ki is given as 4600 µM.

Same assay, conditions: ref [41]; cited from earlier work
In the case of Nc1ncnc2c1ncn2[C@@H]1O[C@H](COP(=O)(O)OP(=O)(O)O)[C@@H](O)[C@H]1O [p2A], the Ki is listed as 1.2 µM.

Same assay, conditions: ref [42]; cited from earlier work
In the case of O=c1ccn([C@@H]2O[C@H](COP(=O)(O)O)[C@@H](O)[C@H]2O)c(=O)[nH]1 [pU], the Ki is listed as 4000 µM.

Same assay, conditions: ref [43]; cited from earlier work
In the case of O=c1ccn([C@@H]2O[C@H](COP(=O)(O)OP(=O)(O)O)[C@@H](O)[C@H]2O)c(=O)[nH]1 [p2U], the Ki is given as 650 µM.

Target: T1, RNase A
Assay: Salt dependence of inhibition/binding of RNase A
Assay type: biochemical, bovine
Conditions: salt dependence of inhibition (Figure S30)
With O=c1ccn([C@@H]2O[C@H](COP(=O)(O)OP(=O)(O)OP(=O)(O)OP(=O)(O)OP(=O)(O)O)[C@@H](O)[C@H]2O)c(=O)[nH]1 [p5U] the “δlogKd/δlog[Na+]” value was 3.2.

Target: T1, RNase A
Assay: Inhibition kinetics of RNase A using a fluorogenic substrate
Assay type: biochemical, bovine
Conditions: ± standard error of fitting one-site binding equation; this work
Compound O=P(O)(O)OP(=O)(O)OP(=O)(O)O [P3i] has a Ki of 23 ± 1 µM. O=P1(O)OP(=O)(O)OP(=O)(O)O1 [cP3i, trimetaphosphate] showed a Ki of 960 ± 80 µM. Work on O=P1(O)OP(=O)(O)OP(=O)(O)OP(=O)(O)O1 [cP4i, tetrametaphosphate] yielded a Ki of 30 ± 0.8 µM. O=P1(O)OP(=O)(O)OP(=O)(O)OP(=O)(O)OP(=O)(O)OP(=O)(O)O1 [cP6i, hexametaphosphate] showed a Ki of 6.2 ± 0.1 µM. For Nc1ncnc2c1ncn2C1OC(COP(=O)(O)OP2(=O)OP(=O)(O)OP(=O)(O)OP(=O)(O)O2)C(O)C1O (stereo not drawn) [cp4pA], the Ki was 0.48 ± 0.03 µM. O=c1ccn(C2OC(COP(=O)(O)OP3(=O)OP(=O)(O)OP(=O)(O)OP(=O)(O)O3)C(O)C2O)c(=O)[nH]1 (stereo not drawn) [cp4pU] showed a Ki of 0.98 ± 0.07 µM. O=c1ccn([C@@H]2O[C@H](COP(=O)(O)OP(=O)(O)OP(=O)(O)O)[C@@H](O)[C@H]2O)c(=O)[nH]1 [p3U] showed a Ki of 8.3 ± 0.3 µM. For Nc1ncnc2c1ncn2[C@@H]1O[C@H](COP(=O)(O)OP(=O)(O)OP(=O)(O)OP(=O)(O)O)[C@@H](O)[C@H]1O [p4A, adenosine tetraphosphate], the Ki was 2.1 ± 0.2 µM. O=c1ccn([C@@H]2O[C@H](COP(=O)(O)OP(=O)(O)OP(=O)(O)OP(=O)(O)O)[C@@H](O)[C@H]2O)c(=O)[nH]1 [p4U, uridine tetraphosphate] gave a Ki of 1.8 ± 0.1 µM. In the case of Nc1ncnc2c1ncn2[C@@H]1O[C@H](COP(=O)(O)OP(=O)(O)OP(=O)(O)OP(=O)(O)OP(=O)(O)O)[C@@H](O)[C@H]1O [p5A], the Ki is reported as 1.4 ± 0.06 µM. Compound O=c1ccn([C@@H]2O[C@H](COP(=O)(O)OP(=O)(O)OP(=O)(O)OP(=O)(O)OP(=O)(O)O)[C@@H](O)[C@H]2O)c(=O)[nH]1 [p5U] has a Ki of 0.068 ± 0.007 µM. In the case of Nc1ncnc2c1ncn2[C@@H]1O[C@H](COP(=O)(O)O)[C@@H](O)[C@H]1O [pA], the Ki is reported as 170 ± 6 µM.
